Consider 33 compounds from paper PMC3767132 (Organic & biomolecular chemistry, 2012).

The target in one assay is hMetAP1 (Homo sapiens, UniProt P53582). The experiment in a line: human MetAP1 enzyme assay. The note with it: for b = bottom value in the dose-response curve, hMetAP1: noted only when above 15%. The format is biochemical.
The next assay deals with HUVEC. The experiment in a line: HUVEC proliferation assay using [3H]-thymidine incorporation. The format is cell-based, human. On the technique in general: Dividing cells build labelled thymidine or BrdU into new DNA.
Another assay concerns the target hMetAP2 (Homo sapiens, UniProt P50579). Description: human MetAP2 enzyme assay. In kind it is biochemical. The following applies: for b = bottom value in the dose-response curve, hMetAP2: noted only when above 15%; for inhibition at 10 µM: read-out: inhibition of MetAP2 activity in HTS.
[1] abbreviates: Homo sapiens, HUVEC, read-out: IC50 HUVEC.
[2] abbreviates: read-out: IC50 hMetAP1, enzyme assay, 10 μM Co2+.
The mark [3] stands for this setting: read-out: IC50 hMetAP2, enzyme assay, 10 μM Mn2+.
The mark [4] stands for this setting: read-out: IC50 HUVEC, proliferation, 3H-T uptake.
Where [5] appears, read: IC50 hMetAP1, enzyme assay, 10 μM Co2+.
The mark [6] stands for this setting: Homo sapiens, HUVEC, read-out: IC50 HUVEC, proliferation, 3H-T uptake.

Molecules are shown by their SMILES. Like-named read-outs stand apart in the source and are kept apart here.

Chain of hMetAP2 (P50579 whole entry): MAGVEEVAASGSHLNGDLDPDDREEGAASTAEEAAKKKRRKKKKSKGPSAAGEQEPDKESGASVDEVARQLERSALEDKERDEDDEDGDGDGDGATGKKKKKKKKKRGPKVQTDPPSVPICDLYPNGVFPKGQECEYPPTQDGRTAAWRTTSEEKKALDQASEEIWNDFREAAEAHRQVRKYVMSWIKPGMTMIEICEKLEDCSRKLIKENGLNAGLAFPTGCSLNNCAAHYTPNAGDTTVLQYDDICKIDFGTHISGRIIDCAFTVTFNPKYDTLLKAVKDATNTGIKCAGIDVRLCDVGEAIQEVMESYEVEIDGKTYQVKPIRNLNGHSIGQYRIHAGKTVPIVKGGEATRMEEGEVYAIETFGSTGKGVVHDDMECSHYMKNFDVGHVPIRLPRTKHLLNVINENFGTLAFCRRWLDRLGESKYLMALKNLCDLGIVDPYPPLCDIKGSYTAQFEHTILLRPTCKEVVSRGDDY

As for `Oc1cccc2cccnc12` [Entry 1, 8-hydroxyquinoline], the IC50 at hMetAP1 (IC50 hMetAP1) is above 15 µM; in the assay with HUVEC (setting [1]), 6.21 ± 1.1 µM.
In the case of `Cc1ccc2cccc(O)c2n1` [Entry 2], the IC50 is above 15 µM on hMetAP1 (setting [2]), above 15 µM at hMetAP2 (setting [3]) and 2.7 ± 0.61 µM in the assay on HUVEC (setting [4]).
With `N#Cc1ccc2cccc(O)c2n1` [Entry 3], the IC50 at hMetAP1 (setting [2]) was above 15 µM; at hMetAP2 (setting [3]), above 15 µM; in the assay with HUVEC (setting [4]), above 50 µM.
In the case of `Oc1ccc(Cl)c2cccnc12` [Entry 4, Cloxyquin, reference compound], in the assay with HUVEC (setting [1]), the IC50 was 1.41 ± 0.1 µM.
`O=S(=O)(O)c1ccc(O)c2ncccc12` [Entry 6]: the results for the IC50 at hMetAP2 (setting [3]) and in the assay on HUVEC (setting [4]) were above 15 µM and above 50 µM, respectively.
Consider `Oc1c(I)cc(Cl)c2cccnc12` [Entry 7, Clioquinol, reference compound], for which the IC50 at hMetAP1 (IC50 MetAP1 with Co2+, Co2+ metalloform, data not shown) was above 50 µM; against hMetAP1 (setting [5]) it was above 15 µM; against hMetAP2 it was 2.39 ± 0.31 µM; in the assay on HUVEC (setting [1]), 2.42 ± 0.5 µM.
As to `Oc1c(Br)cc(Cl)c2cccnc12` [Entry 8], the results for the IC50 at hMetAP1 (setting [2]), at hMetAP2 (setting [3]) and in the assay on HUVEC (setting [4]) were above 15 µM, above 15 µM and 2.21 ± 0.6 µM, respectively.
For the compound `Oc1c(Cl)cc(Cl)c2cccnc12` [Entry 9], the results for the IC50 on hMetAP1 (setting [2]), on hMetAP2 (setting [3]) and in the assay on HUVEC (setting [4]) were above 15 µM, above 15 µM and 3.64 ± 0.53 µM, respectively.
As for `Oc1c(Br)cc(Br)c2cccnc12` [Entry 10], the IC50 at hMetAP1 (setting [2]) is above 15 µM; on hMetAP2 (setting [3]), above 15 µM; with HUVEC (setting [4]) it was 2.53 ± 0.71 µM.
For `Oc1c(I)cc(I)c2cccnc12` [Entry 11], the IC50 at hMetAP1 (setting [2]) is above 15 µM; on hMetAP2 (setting [3]), above 15 µM; with HUVEC (setting [4]), 2.62 ± 0.08 µM.
Take `Oc1c(CN2CCOCC2)ccc2cccnc12` [Entry 12]: the IC50 at hMetAP1 (setting [2]) was above 50 µM; on hMetAP2 (setting [3]), above 15 µM; in the assay with HUVEC (setting [4]), above 20 µM.
In the case of `Oc1c(C(Nc2nccs2)c2ccco2)cc(Cl)c2cccnc12` (stereo not shown) [Entry 19, 5-Chloro-7-(furan-2-yl(thiazole-2-ylamino)methyl)quinolin-8-ol], the IC50 was above 50 µM against hMetAP1 (setting [5]), 2.75 ± 0.4 µM against hMetAP2 and 2.53 ± 0.13 µM in the assay with HUVEC (setting [1]).
Consider `O=C(NCCCl)Oc1c(Cl)cc(Cl)c2cccnc12` [Entry 21, 5,7-Dichloroquinolin-8-yl 2-chloroethylcarbamate], for which the IC50 against hMetAP1 (setting [5]) was above 15 µM; with HUVEC (setting [6]), 2.62 ± 0.5 µM.
The inhibition is the change of the read-out against control, counted positive when it falls. As to `O=C(Nc1ccccc1)Oc1ccc(Cl)c2cccnc12` [Entry 22, 5-chloroquinolin-8-yl phenylcarbamate], the IC50 was above 15 µM against hMetAP1 (setting [5]), 5.26 ± 0.6 µM against hMetAP2, 1.2 µM with HUVEC (setting [6]) and 1.21 ± 0.51 µM in the assay with HUVEC (setting [4]). Further, the “b = bottom value in the dose-response curve, hMetAP2” value at hMetAP2 came out at 24%. On hMetAP2, the inhibition at 10 µM is above 90%.
On to `O=C(Nc1cc(F)cc(F)c1)Oc1ccc(Cl)c2cccnc12` [Entry 23, 5-Chloroquinolin-8-yl 3,5-difluorophenylcarbamate], for which the IC50 on hMetAP1 (setting [5]) is above 15 µM; on hMetAP2, above 15 µM; in the assay on HUVEC (setting [6]) it was 2.2 ± 0.1 µM.
For the compound `O=C(Nc1ccc(F)cc1)Oc1c(Cl)cc(Cl)c2cccnc12` [Entry 25, 5,7-Dichloroquinolin-8-yl 4-fluorophenylcarbamate], the results for the IC50 against hMetAP1 (setting [5]), against hMetAP2 and in the assay on HUVEC (setting [6]) were above 15 µM, above 15 µM and 3.58 ± 0.9 µM, respectively.
In the case of `CCOP(=O)(OCC)Oc1ccc(Cl)c2cccnc12` [Entry 26, 5-chloroquinolin-8-yl diethyl phosphate], the IC50 is above 15 µM against hMetAP1 (setting [5]), above 15 µM against hMetAP2 and above 50 µM in the assay on HUVEC (setting [1]).
With `C=CCOc1ccc(Cl)c2cccnc12` [Entry 27, 5-chloro-8-allyloxyquinoline], the results for the IC50 against hMetAP1 (setting [5]), against hMetAP2 and in the assay with HUVEC (setting [1]) were above 15 µM, above 50 µM and above 50 µM, respectively. Further, the inhibition at 10 µM on hMetAP2 is above 90%.
Turning to `C=CCOc1c(Cl)cc(Cl)c2cccnc12` [Entry 28, 8-(Allyloxy)-5,7-dichloroquinoline], the IC50 on hMetAP1 (setting [5]) was above 15 µM; at hMetAP2, above 15 µM; in the assay on HUVEC (setting [1]) it was 2.32 ± 0.23 µM.
As for `OCCOc1ccc(Cl)c2cccnc12` [Entry 29], the IC50 on hMetAP1 (setting [2]) is above 15 µM; at hMetAP2 (setting [3]) it was above 15 µM; in the assay on HUVEC (setting [4]) it was 2.4 ± 0.3 µM.
Consider `C=CCOc1cccc2ccc(C#N)nc12` [Entry 30, 8-(Allyloxy)quinoline-2-carbonitrile], for which the IC50 on hMetAP1 (setting [5]) was above 15 µM; against hMetAP2 it was above 15 µM; in the assay on HUVEC (setting [1]), above 50 µM.
On to `Nc1cccc2cccnc12` [Entry 31, 8-aminoquinoline], for which the IC50 against hMetAP1 (setting [5]) was above 15 µM; at hMetAP2 it was above 15 µM; with HUVEC (setting [6]), above 50 µM.
On to `CCN(CC)c1ccc(O)c2ncccc12` [Entry 35, 5-(N,N-Diethyl)amino-8-hydroxyquinoline], for which the IC50 against hMetAP1 (setting [5]) is 7.21 ± 1.3 µM; against hMetAP2 it was 20.1 µM; in the assay on HUVEC (setting [1]) it was 0.329 ± 0.17 µM. In addition, at hMetAP1, the “b = bottom value in the dose-response curve, hMetAP1” value stood at 29%. For the same compound, the “b = bottom value in the dose-response curve, hMetAP2” value on hMetAP2 was determined as 25%.
In the case of `CCCCCCN(CCCCCC)c1ccc(O)c2ncccc12` [Entry 36, 5-(N,N-Di-n-hexyl)amino-8-hydroxyquinoline], the IC50 was above 40 µM against hMetAP1 (setting [5]), above 40 µM against hMetAP2 and 0.789 ± 0.21 µM in the assay on HUVEC (setting [1]).
As to `COc1ccc(CN(Cc2ccc(OC)cc2)c2ccc(O)c3ncccc23)cc1` [Entry 37, 5-(N,N-Di[(4-methoxy)benzyl])amino-8-hydroxyquinoline], the results for the IC50 against hMetAP1 (setting [5]), on hMetAP2 and in the assay with HUVEC (setting [1]) were 1.46 ± 0.3 µM, above 40 µM and 0.551 ± 0.08 µM, respectively. Further, the “b = bottom value in the dose-response curve, hMetAP1” value at hMetAP1 is reported as 32%.
Regarding `CC(=O)Nc1ccc(O)c2ncccc12` [Entry 38], the IC50 on hMetAP1 (setting [2]) is above 40 µM; at hMetAP2 (setting [3]), above 40 µM; with HUVEC (setting [4]) it was 10.2 ± 1.1 µM. Further, the “b = bottom value in the dose-response curve, HUVEC” value in the assay on HUVEC (3H-T uptake, noted only when above 15%) is recorded as 28%.
Regarding `CCCCCC(=O)Nc1ccc(O)c2ncccc12` [Entry 39, N-(8-Hydroxyquinolin-5-yl)hexanamide], the IC50 against hMetAP1 (setting [5]) is above 40 µM; at hMetAP2 it was above 40 µM; in the assay with HUVEC (setting [1]) it was 8.45 ± 0.91 µM.
With `CC(C)S(=O)(=O)Nc1ccc(O)c2ncccc12` [Entry 41, N-(8-Hydroxyquinolin-5-yl)propane-2-sulfonamide], the figures for the IC50 on hMetAP1 (setting [5]), against hMetAP2 and with HUVEC (setting [1]) were above 40 µM, above 40 µM and 12.9 ± 0.13 µM, respectively.
Take `O=C(Nc1ccc(O)c2ncccc12)N1CCOCC1` [Entry 42, N-(8-Hydroxyquinolin-5-yl)morpholine-4-carboxamide]: the IC50 was above 40 µM against hMetAP1 (setting [5]), above 40 µM on hMetAP2 and 1.88 ± 0.3 µM with HUVEC (setting [1]).
As to `Cc1ccc2c([N+](=O)[O-])cc([N+](=O)[O-])c(O)c2n1` [Entry 43], the IC50 at hMetAP1 (setting [2]) is 17.3 ± 1.7 µM; at hMetAP2 (setting [3]) it was above 15 µM; in the assay with HUVEC (setting [4]) it was 15.7 ± 1.3 µM.
The corresponding values for `O=[N+]([O-])c1cc(Cl)c2cccnc2c1O` [Entry 44] are above 15 µM, above 15 µM and 7.73 ± 0.77 µM.
On to `CCOC(=O)COc1ccc([N+](=O)[O-])c2cccnc12` [Entry 49, ethyl 2-(5-nitroquinolin-8-yloxy)acetate], for which the IC50 on hMetAP1 (setting [5]) was above 15 µM; against hMetAP2, above 15 µM; with HUVEC (setting [1]), 7.3 ± 0.81 µM.
With `NC(=O)COc1ccc([N+](=O)[O-])c2cccnc12` [Entry 50, 2-(5-nitroquinolin-8-yloxy)acetamide], the IC50 was above 15 µM against hMetAP1 (setting [5]), 1.06 ± 0.5 µM on hMetAP2 and 6.3 ± 1.4 µM with HUVEC (setting [1]).
